# In ChEMBL document CHEMBL5465560, “Selectivity Literature for EUbOPEN Chemogenomic Library” (2024):
# Key:
# [1] = biological target: Ribosomal protein S6 kinase alpha-3 (Homo sapiens, UniProt P51812); assay: Selectivity interaction (ActivX KiNativ screen (kinase selectivity in THP-1 cell lysates)) EUB0000639a RPS6KA3; format: subcellular; settings: lysate, at 0.01 µM
# [2] = biological target: Macrophage colony-stimulating factor 1 receptor (Homo sapiens) (UniProt P07333); assay: Selectivity interaction (Kinase panel (Z-LYTE Assay)) EUB0001632a CSF1R; settings: at 10 µM
# Sequence of Macrophage colony-stimulating factor 1 receptor (Homo sapiens) (P07333 whole entry): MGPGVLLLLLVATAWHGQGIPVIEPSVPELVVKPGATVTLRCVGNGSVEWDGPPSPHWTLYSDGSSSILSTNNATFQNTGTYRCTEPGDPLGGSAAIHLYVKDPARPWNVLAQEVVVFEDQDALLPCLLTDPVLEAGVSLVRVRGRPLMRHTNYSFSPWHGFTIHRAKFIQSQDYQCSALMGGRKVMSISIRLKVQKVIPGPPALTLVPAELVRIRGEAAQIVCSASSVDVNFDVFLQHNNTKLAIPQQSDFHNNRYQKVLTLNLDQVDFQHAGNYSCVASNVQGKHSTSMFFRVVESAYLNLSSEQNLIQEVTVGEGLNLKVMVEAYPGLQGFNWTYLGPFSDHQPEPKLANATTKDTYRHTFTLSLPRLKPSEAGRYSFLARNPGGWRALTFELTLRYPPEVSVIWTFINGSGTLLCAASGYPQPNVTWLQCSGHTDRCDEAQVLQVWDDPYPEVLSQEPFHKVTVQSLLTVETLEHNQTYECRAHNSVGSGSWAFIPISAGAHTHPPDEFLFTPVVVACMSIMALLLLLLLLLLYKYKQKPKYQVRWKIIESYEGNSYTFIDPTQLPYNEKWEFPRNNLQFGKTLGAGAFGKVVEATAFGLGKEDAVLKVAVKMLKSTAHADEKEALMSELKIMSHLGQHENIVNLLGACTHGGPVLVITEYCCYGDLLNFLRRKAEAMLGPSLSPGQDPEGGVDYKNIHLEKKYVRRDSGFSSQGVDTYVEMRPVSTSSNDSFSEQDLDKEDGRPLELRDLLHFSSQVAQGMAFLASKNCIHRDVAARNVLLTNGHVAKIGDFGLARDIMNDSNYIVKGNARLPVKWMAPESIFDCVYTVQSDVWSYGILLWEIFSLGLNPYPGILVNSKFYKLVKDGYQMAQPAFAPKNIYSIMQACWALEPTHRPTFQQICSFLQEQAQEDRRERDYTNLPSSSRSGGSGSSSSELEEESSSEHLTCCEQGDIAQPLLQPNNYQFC
# [3] = biological target: Sodium-dependent noradrenaline transporter (Homo sapiens, UniProt P23975); assay: Selectivity interaction (Panel of non-epigenetic targets (kinases, GPCRs, ion channels, and transporters, Eurofins) ) EUB0000271b SLC6A2; settings: at 1 µM
# Sequence of Sodium-dependent noradrenaline transporter (P23975 whole entry): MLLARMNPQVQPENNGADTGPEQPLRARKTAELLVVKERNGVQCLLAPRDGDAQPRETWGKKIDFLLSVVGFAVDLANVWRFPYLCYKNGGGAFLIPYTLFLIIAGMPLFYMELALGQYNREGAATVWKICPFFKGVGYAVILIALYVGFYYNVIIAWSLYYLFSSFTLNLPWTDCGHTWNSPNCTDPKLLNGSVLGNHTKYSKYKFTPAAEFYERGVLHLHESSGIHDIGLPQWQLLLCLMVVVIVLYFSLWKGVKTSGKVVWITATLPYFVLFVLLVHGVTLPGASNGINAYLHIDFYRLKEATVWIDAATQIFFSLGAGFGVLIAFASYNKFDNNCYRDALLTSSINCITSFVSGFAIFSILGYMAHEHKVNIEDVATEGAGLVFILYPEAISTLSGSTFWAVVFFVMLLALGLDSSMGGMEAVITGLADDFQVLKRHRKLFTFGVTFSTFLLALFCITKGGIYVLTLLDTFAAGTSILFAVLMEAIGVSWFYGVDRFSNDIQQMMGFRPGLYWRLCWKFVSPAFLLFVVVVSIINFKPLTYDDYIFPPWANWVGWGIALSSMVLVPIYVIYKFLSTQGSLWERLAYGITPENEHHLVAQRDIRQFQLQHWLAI
# [4] = biological target: Calcium/calmodulin-dependent protein kinase type 1D (Homo sapiens) (UniProt Q8IU85); assay: Selectivity interaction (KinomeScan (DiscoverX)) EUB0001079a CAMK1D; settings: at 1 µM
# Sequence of Calcium/calmodulin-dependent protein kinase type 1D (Homo sapiens) (Q8IU85 whole entry, looked up): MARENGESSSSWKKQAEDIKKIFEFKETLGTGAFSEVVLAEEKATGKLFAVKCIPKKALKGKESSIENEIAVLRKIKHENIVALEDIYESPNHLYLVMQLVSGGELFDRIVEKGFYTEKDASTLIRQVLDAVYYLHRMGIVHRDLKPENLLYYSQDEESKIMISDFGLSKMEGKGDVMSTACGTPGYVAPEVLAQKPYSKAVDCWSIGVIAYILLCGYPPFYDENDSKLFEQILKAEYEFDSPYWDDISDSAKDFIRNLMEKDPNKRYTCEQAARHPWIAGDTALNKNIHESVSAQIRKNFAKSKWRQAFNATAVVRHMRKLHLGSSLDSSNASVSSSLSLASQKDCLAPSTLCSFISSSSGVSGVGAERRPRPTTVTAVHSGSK
# [5] = biological target: T1, Bone morphogenetic protein receptor type-2 (Homo sapiens) (UniProt Q13873); assay: Selectivity interaction (KinomeScan (DiscoverX)) EUB0001079a BMPR2; settings: at 1 µM
# T1 sequence (whole entry): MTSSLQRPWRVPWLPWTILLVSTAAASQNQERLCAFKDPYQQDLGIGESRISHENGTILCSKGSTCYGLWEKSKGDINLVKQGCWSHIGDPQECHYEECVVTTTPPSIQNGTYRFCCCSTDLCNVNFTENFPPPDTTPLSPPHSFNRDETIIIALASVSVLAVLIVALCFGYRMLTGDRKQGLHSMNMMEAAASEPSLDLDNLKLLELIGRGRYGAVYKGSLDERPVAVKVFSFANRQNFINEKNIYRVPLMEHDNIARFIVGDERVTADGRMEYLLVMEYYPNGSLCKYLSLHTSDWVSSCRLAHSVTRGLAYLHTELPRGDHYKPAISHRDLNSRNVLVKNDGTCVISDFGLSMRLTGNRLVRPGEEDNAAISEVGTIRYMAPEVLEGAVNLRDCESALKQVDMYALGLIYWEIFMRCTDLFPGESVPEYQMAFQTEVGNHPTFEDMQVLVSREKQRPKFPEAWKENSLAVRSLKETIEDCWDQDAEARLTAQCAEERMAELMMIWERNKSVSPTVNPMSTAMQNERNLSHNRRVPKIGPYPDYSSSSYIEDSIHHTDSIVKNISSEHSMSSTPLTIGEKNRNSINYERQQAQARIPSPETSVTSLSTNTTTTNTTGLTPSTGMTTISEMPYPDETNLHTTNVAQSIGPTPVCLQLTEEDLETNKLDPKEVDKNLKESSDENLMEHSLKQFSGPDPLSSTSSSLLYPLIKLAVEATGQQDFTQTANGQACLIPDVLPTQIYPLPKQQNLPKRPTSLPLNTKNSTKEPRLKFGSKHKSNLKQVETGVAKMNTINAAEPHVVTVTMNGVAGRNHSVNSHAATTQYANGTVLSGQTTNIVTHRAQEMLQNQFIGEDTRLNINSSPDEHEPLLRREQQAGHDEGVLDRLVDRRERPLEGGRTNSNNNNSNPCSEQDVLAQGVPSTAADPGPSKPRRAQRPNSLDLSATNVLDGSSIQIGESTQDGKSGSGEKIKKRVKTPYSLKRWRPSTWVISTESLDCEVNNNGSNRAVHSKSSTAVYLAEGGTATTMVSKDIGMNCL
# [6] = biological target: Serine/threonine-protein kinase 10 (Homo sapiens) (UniProt O94804); assay: Selectivity interaction (KinomeScan (DiscoverX)) EUB0000092b STK10; settings: at 10 µM
# Sequence of Serine/threonine-protein kinase 10 (Homo sapiens) (O94804 whole entry, looked up): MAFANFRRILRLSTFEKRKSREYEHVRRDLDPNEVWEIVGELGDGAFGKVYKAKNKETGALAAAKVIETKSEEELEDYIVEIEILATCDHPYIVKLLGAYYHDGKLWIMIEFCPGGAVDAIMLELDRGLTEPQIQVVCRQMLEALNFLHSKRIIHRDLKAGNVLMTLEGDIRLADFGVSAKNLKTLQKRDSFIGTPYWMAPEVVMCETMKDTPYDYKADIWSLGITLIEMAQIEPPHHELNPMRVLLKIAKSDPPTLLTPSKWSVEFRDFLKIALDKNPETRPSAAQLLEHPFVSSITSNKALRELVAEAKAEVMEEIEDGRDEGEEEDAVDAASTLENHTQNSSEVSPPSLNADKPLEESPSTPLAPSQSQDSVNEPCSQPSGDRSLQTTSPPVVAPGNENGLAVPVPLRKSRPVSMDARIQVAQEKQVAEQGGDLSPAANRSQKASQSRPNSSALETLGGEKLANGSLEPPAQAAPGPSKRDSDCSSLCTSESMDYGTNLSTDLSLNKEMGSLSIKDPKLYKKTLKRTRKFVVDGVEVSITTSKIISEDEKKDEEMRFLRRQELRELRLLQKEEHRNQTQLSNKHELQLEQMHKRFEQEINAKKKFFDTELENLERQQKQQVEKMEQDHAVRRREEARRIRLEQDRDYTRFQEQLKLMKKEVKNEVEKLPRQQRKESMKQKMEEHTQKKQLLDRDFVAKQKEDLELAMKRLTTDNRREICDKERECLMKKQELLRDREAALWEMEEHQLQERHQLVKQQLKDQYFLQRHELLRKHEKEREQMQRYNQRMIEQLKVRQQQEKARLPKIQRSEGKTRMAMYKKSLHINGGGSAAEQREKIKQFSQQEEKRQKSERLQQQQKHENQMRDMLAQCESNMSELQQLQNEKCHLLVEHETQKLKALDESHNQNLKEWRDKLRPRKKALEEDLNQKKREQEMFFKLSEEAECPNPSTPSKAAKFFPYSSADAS
# [7] = biological target: T2, Dual specificity mitogen-activated protein kinase kinase 5 (Homo sapiens) (UniProt Q13163); assay: Selectivity interaction (KinomeScan (DiscoverX)) EUB0000045b MAP2K5
# T2 sequence (whole entry): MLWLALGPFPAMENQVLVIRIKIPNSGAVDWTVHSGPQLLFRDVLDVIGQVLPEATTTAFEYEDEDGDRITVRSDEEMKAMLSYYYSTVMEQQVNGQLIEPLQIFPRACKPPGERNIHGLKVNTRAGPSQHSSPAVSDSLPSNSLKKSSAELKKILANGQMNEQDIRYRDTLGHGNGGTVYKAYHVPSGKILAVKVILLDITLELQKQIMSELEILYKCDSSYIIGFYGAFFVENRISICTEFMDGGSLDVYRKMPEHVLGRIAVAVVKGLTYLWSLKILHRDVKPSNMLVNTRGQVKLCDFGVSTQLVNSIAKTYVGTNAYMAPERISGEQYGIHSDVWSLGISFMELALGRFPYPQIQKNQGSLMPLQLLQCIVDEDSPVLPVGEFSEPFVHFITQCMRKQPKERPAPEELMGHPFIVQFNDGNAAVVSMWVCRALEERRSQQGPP
# [8] = biological target: T3, Fibroblast growth factor receptor 4 (Homo sapiens, UniProt P22455); assay: Selectivity interaction (KinomeScan (DiscoverX)) EUB0000045b FGFR4
# T3 sequence (P22455 22-802 limits assumed): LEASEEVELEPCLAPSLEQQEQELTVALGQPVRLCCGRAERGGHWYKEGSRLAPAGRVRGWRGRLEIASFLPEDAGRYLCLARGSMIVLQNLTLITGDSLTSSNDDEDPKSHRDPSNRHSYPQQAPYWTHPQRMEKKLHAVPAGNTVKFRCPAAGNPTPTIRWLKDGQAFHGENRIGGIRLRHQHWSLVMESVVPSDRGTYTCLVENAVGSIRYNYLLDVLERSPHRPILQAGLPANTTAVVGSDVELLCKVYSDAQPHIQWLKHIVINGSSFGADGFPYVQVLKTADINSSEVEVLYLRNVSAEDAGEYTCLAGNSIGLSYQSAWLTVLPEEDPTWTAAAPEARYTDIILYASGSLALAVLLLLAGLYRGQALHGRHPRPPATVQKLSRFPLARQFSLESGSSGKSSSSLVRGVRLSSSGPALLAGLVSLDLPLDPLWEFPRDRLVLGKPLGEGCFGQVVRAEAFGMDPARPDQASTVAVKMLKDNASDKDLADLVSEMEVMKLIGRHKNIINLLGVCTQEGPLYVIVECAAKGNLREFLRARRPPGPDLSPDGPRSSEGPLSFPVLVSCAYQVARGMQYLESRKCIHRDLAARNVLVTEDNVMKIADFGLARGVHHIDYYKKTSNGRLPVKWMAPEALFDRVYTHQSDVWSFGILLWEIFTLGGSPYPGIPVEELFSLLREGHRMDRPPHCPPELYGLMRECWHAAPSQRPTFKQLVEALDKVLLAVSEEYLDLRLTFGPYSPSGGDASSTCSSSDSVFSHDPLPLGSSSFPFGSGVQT
# [9] = biological target: T4, Megakaryocyte-associated tyrosine-protein kinase (Homo sapiens) (UniProt P42679); assay: Selectivity interaction (KinomeScan (DiscoverX)) EUB0000618a MATK; settings: at 10 µM
# T4 sequence (whole entry): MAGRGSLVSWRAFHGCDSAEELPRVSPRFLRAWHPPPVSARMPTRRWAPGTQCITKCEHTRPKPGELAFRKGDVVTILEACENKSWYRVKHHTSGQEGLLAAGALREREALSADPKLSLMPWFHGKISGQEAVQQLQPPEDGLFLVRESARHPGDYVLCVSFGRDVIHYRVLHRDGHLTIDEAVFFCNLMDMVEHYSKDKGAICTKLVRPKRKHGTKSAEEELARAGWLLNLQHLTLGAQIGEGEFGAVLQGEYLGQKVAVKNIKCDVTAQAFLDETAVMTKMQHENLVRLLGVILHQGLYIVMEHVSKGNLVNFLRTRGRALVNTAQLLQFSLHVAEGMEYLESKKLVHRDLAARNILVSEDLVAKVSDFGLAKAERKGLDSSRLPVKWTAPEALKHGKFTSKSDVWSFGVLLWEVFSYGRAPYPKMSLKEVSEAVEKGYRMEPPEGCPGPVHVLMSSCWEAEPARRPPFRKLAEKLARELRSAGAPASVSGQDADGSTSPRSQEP
# [10] = biological target: T3, Fibroblast growth factor receptor 4; assay: Selectivity interaction (KinomeScan (DiscoverX)) EUB0000666a FGFR4; settings: at 10 µM
# Sequence of Ribosomal protein S6 kinase alpha-3 (P51812 whole entry): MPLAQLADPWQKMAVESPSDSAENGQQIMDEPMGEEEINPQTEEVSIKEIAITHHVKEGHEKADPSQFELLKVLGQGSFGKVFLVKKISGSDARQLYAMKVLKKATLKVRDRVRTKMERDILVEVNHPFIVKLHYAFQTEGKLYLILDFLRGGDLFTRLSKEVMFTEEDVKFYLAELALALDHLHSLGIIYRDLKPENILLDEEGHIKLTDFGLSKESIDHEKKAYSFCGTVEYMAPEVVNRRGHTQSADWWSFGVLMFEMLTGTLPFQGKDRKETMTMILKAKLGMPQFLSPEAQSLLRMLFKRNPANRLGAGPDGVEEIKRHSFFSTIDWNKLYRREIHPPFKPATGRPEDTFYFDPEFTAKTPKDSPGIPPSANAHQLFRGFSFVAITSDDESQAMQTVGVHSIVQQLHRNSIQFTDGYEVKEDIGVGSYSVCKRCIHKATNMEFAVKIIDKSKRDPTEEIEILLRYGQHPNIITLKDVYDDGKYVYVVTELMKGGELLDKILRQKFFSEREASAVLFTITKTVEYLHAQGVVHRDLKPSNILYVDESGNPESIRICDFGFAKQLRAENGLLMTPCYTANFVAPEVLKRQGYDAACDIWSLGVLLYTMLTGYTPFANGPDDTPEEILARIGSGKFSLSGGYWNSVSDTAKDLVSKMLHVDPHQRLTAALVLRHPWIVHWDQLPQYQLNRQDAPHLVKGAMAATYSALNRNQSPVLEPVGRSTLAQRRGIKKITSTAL
smiles,measurement,setting,value
CC[C@@H]1[C@H](F)C(=O)N[C@@H]1COc1nccc2cc(C(N)=O)c(OC)cc12 [ZIMLOVISERTIB],% of inhibition,[1],10.7%
Cn1cc(-n2cnc3c(NCc4nc5cc(Cl)c(Cl)cc5[nH]4)nc(N4CCOCC4)nc32)cn1,% of control,[2],20%
Cc1cc(C)cc([C@@H]2c3cc(C)ccc3NC(=O)CN2C(=O)c2ccc(Br)s2)c1,% of inhibition,[3],-4%
Nc1cnc(N2CCc3cc(S(=O)(=O)Nc4c(F)cc(Cl)cc4F)cc(N4CCCC4=O)c32)nc1 [TP-020n],% of control,[4],97%
same,% of control,[5],100%
CCC(=O)N1CCN(c2ccc(-n3c(=O)ccc4cnc5ccc(-c6cnc7ccccc7c6)cc5c43)cc2C(F)(F)F)CC1,% of control,[6],79%
C=CC(=O)Nc1cc(-n2c(=O)ccc3cnc4ccc(-c5ccc(NS(C)(=O)=O)cc5)cc4c32)ccc1C,% of control,[7]; at 1 µM,100%
same,% of control,[7]; at 10 µM,64%
same,% of control,[8]; at 1 µM,100%
same,% of control,[8]; at 10 µM,84%
O[C@H]1CC[C@H](Nc2ncc3nc(Nc4c(F)cc(F)cc4F)n([C@H]4CCOC4)c3n2)CC1,% of control,[9],95%
O=C(NOC[C@H](O)CO)c1ccc(F)c(F)c1Nc1ccc(I)cc1F,% of control,[10],54%
